Data on 26 compounds can be found in US20250171437A1 (Agios Pharmaceuticals,Inc., priority 2022, published 2025).

For this assay, the target named is T1, human PAH with the R408W mutation (A375 R408W cells) (Homo sapiens, UniProt P00439, R408W).
T1 construct: expressed in transfected cells
T1 sequence (P00439 1-452 R408W): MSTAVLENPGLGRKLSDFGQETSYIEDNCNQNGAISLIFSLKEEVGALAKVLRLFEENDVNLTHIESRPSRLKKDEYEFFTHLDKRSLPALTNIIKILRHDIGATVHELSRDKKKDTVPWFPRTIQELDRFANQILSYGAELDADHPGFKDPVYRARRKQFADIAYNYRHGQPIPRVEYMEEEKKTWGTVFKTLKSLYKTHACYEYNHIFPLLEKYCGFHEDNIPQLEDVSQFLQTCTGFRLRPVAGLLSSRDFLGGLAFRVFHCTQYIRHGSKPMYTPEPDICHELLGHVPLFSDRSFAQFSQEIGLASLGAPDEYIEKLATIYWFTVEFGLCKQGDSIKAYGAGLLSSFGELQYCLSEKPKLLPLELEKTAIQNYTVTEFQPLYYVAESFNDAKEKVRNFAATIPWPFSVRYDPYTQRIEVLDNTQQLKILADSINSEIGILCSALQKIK
Kind of assay: Cell Based Phenylalanine Flux Assay. As to conditions: A375 R408W cells; 24 hrs with compound, then 20 μM sepiapterin and 800 μM 13C9,15N-Phenylalanine for 4 hours; 13C-Tyrosine by LC-MS; average where tested multiple times. The essentials:
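A375 cells stably expressing human PAH R408W treated 24 h at 37° C with a 10-point 2-fold dose curve in duplicate, 0.5% DMSO. Then 20 μM sepiapterin and 800 μM 13C9,15N-Phe added for 4 h; 13C-Tyr in media measured by LC-MS to give AC50.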
Regarding `O=C(c1nnc(-c2ccccn2)o1)N1CCc2[nH]cnc2[C@H]1c1nc2cc(F)cc(F)c2o1` [Example 580, (S)-(4-(5,7-difluorobenzo[d]oxazol-2-yl)-6,7-dihydro-1H-imidazo[4,5-c]pyridin-5(4H)-yl)(5-(pyridin-2-yl)-1,3,4-oxadiazol-2-yl)methanone], the AC50 (as a rule, the midpoint of the concentration-response curve, whichever way the signal moves) was 500 to 1000 nM.
As for `Cn1cc(-c2nnc(C(=O)N3CCc4[nH]cnc4[C@H]3c3nc4ccccc4o3)o2)cn1` [Example 581, (S)-(4-(benzo[d]oxazol-2-yl)-6,7-dihydro-1H-imidazo[4,5-c]pyridin-5(4H)-yl)(5-(1-methyl-1H-pyrazol-4-yl)-1,3,4-oxadiazol-2-yl)methanone], the AC50 is ≤ 500 nM.
With `Cn1cc(-c2nnc(C(=O)N3CCc4[nH]cnc4[C@@H]3c3nc4ccccc4o3)o2)cn1` [Example 582, (R)-(4-(benzo[d]oxazol-2-yl)-6,7-dihydro-1H-imidazo[4,5-c]pyridin-5(4H)-yl)(5-(1-methyl-1H-pyrazol-4-yl)-1,3,4-oxadiazol-2-yl)methanone], the AC50 was 1000 to 5000 nM.
On to `O=C(c1nnc(-c2ccccn2)o1)N1CCc2[nH]cnc2[C@H]1c1nc2ccccc2o1` [Example 583, (S)-(4-(benzo[d]oxazol-2-yl)-6,7-dihydro-1H-imidazo[4,5-c]pyridin-5(4H)-yl)(5-(pyridin-2-yl)-1,3,4-oxadiazol-2-yl)methanone], for which the AC50 was ≤ 500 nM.
Take `O=C(c1nnc(-c2ccccn2)o1)N1CCc2[nH]cnc2[C@@H]1c1nc2ccccc2o1` [Example 584, (R)-(4-(benzo[d]oxazol-2-yl)-6,7-dihydro-1H-imidazo[4,5-c]pyridin-5(4H)-yl)(5-(pyridin-2-yl)-1,3,4-oxadiazol-2-yl)methanone]: the AC50 is 1000 to 5000 nM.
In the case of `O=C(c1oc(C2(O)CCC2)nc1C(F)(F)F)N1CCc2[nH]cnc2[C@H]1c1nc2cc(F)ccc2o1` [Example 585, (S)-(4-(5-fluorobenzo[d]oxazol-2-yl)-6,7-dihydro-1H-imidazo[4,5-c]pyridin-5(4H)-yl)(2-(1-hydroxycyclobutyl)-4-(trifluoromethyl)oxazol-5-yl)methanone], the AC50 was ≤ 500 nM.
Next, `O=C(c1oc(C2(O)CCC2)nc1C(F)(F)F)N1CCc2[nH]cnc2[C@@H]1c1nc2cc(F)ccc2o1` [Example 586, (R)-(4-(5-fluorobenzo[d]oxazol-2-yl)-6,7-dihydro-1H-imidazo[4,5-c]pyridin-5(4H)-yl)(2-(1-hydroxycyclobutyl)-4-(trifluoromethyl)oxazol-5-yl)methanone]: 1000 to 5000 nM; `O=C(c1oc(-c2ccccn2)nc1C(F)F)N1CCc2[nH]cnc2[C@H]1c1nc2cccc(F)c2o1` [Example 587, (S)-(4-(difluoromethyl)-2-(pyridin-2-yl)oxazol-5-yl)(4-(7-fluorobenzo[d]oxazol-2-yl)-6,7-dihydro-1H-imidazo[4,5-c]pyridin-5(4H)-yl)methanone]: ≤ 500 nM.
As for `O=C(c1oc(-c2ccccn2)nc1C(F)F)N1CCc2[nH]cnc2[C@@H]1c1nc2cccc(F)c2o1` [Example 588, (R)-(4-(difluoromethyl)-2-(pyridin-2-yl)oxazol-5-yl)(4-(7-fluorobenzo[d]oxazol-2-yl)-6,7-dihydro-1H-imidazo[4,5-c]pyridin-5(4H)-yl)methanone], the concentration at half-maximal activity (AC50) was ≤ 500 nM.
In the case of `O=C(c1oc(-c2cccnc2)nc1C(F)F)N1CCc2[nH]cnc2[C@@H]1c1nc2cccc(F)c2o1` [Example 589, (R)-(4-(difluoromethyl)-2-(pyridin-3-yl)oxazol-5-yl)(4-(7-fluorobenzo[d]oxazol-2-yl)-6,7-dihydro-1H-imidazo[4,5-c]pyridin-5(4H)-yl)methanone], the AC50 is ≤ 500 nM.
Next, `O=C(c1oc(-c2cccnc2)nc1C(F)F)N1CCc2[nH]cnc2[C@H]1c1nc2cccc(F)c2o1` [Example 590, (S)-(4-(difluoromethyl)-2-(pyridin-3-yl)oxazol-5-yl)(4-(7-fluorobenzo[d]oxazol-2-yl)-6,7-dihydro-1H-imidazo[4,5-c]pyridin-5(4H)-yl)methanone]: ≤ 500 nM.
`Cn1ccc(-c2nc(C(F)F)c(C(=O)N3CCc4[nH]cnc4[C@H]3c3nc4cccc(F)c4o3)o2)n1` [Example 591, (S)-(4-(difluoromethyl)-2-(1-methyl-1H-pyrazol-3-yl)oxazol-5-yl)(4-(7-fluorobenzo[d]oxazol-2-yl)-6,7-dihydro-1H-imidazo[4,5-c]pyridin-5(4H)-yl)methanone]: the AC50 was ≤ 500 nM.
As for `Cn1ccc(-c2nc(C(F)F)c(C(=O)N3CCc4[nH]cnc4[C@@H]3c3nc4cccc(F)c4o3)o2)n1` [Example 592, (R)-(4-(difluoromethyl)-2-(1-methyl-1H-pyrazol-3-yl)oxazol-5-yl)(4-(7-fluorobenzo[d]oxazol-2-yl)-6,7-dihydro-1H-imidazo[4,5-c]pyridin-5(4H)-yl)methanone], the AC50 lay within 500 to 1000 nM.
In the case of `Cc1nc(-c2ccccn2)oc1C(=O)N1CCc2[nH]cnc2[C@@H]1c1nc2cccc(F)c2o1` [Example 593, (R)-(4-(7-fluorobenzo[d]oxazol-2-yl)-6,7-dihydro-1H-imidazo[4,5-c]pyridin-5(4H)-yl)(4-methyl-2-(pyridin-2-yl)oxazol-5-yl)methanone], the AC50 lay within 1000 to 5000 nM.
Next, `Cc1nc(-c2ccccn2)oc1C(=O)N1CCc2[nH]cnc2[C@H]1c1nc2cccc(F)c2o1` [Example 594, (S)-(4-(7-fluorobenzo[d]oxazol-2-yl)-6,7-dihydro-1H-imidazo[4,5-c]pyridin-5(4H)-yl)(4-methyl-2-(pyridin-2-yl)oxazol-5-yl)methanone]: ≤ 500 nM.
Regarding `Cc1nc(-c2cnn(C)c2)oc1C(=O)N1CCc2[nH]cnc2[C@@H]1c1nc2cccc(F)c2o1` [Example 595, (R)-(4-(7-fluorobenzo[d]oxazol-2-yl)-6,7-dihydro-1H-imidazo[4,5-c]pyridin-5(4H)-yl)(4-methyl-2-(1-methyl-1H-pyrazol-4-yl)oxazol-5-yl)methanone], the AC50 lay in the range of 1000 to 5000 nM.
Next, `Cc1nc(-c2cnn(C)c2)oc1C(=O)N1CCc2[nH]cnc2[C@H]1c1nc2cccc(F)c2o1` [Example 596, (S)-(4-(7-fluorobenzo[d]oxazol-2-yl)-6,7-dihydro-1H-imidazo[4,5-c]pyridin-5(4H)-yl)(4-methyl-2-(1-methyl-1H-pyrazol-4-yl)oxazol-5-yl)methanone]: ≤ 500 nM; `Cc1ncoc1C(=O)N1CCc2[nH]cnc2[C@H]1c1nc2ccc(F)cc2o1` [Example 597, (S)-(4-(6-fluorobenzo[d]oxazol-2-yl)-6,7-dihydro-1H-imidazo[4,5-c]pyridin-5(4H)-yl)(4-methyloxazol-5-yl)methanone]: ≤ 500 nM; `Cc1ncoc1C(=O)N1CCc2[nH]cnc2[C@@H]1c1nc2ccc(F)cc2o1` [Example 598, (R)-(4-(6-fluorobenzo[d]oxazol-2-yl)-6,7-dihydro-1H-imidazo[4,5-c]pyridin-5(4H)-yl)(4-methyloxazol-5-yl)methanone]: 1000 to 5000 nM.
As for `Cc1ncoc1C(=O)N1CCc2[nH]cnc2[C@H]1c1nc2c(F)cccc2o1` [Example 599, (S)-(4-(4-fluorobenzo[d]oxazol-2-yl)-6,7-dihydro-1H-imidazo[4,5-c]pyridin-5(4H)-yl)(4-methyloxazol-5-yl)methanone], the AC50 is ≤ 500 nM.
Turning to `Cc1ncoc1C(=O)N1CCc2[nH]cnc2[C@@H]1c1nc2c(F)cccc2o1` [Example 600, (R)-(4-(4-fluorobenzo[d]oxazol-2-yl)-6,7-dihydro-1H-imidazo[4,5-c]pyridin-5(4H)-yl)(4-methyloxazol-5-yl)methanone], the AC50 is 1000 to 5000 nM.
Regarding `COc1cccc2oc([C@@H]3c4nc[nH]c4CCN3C(=O)c3nc(C(F)F)nn3C)nc12` [Example 601, (S)-(3-(difluoromethyl)-1-methyl-1H-1,2,4-triazol-5-yl)(4-(4-methoxybenzo[d]oxazol-2-yl)-6,7-dihydro-1H-imidazo[4,5-c]pyridin-5(4H)-yl)methanone], the AC50 was in the range of 500 to 1000 nM.
The value for `COc1cccc2oc([C@H]3c4nc[nH]c4CCN3C(=O)c3nc(C(F)F)nn3C)nc12` [Example 602, (R)-(3-(difluoromethyl)-1-methyl-1H-1,2,4-triazol-5-yl)(4-(4-methoxybenzo[d]oxazol-2-yl)-6,7-dihydro-1H-imidazo[4,5-c]pyridin-5(4H)-yl)methanone] was 500 to 1000 nM; that for `COc1cccc2oc([C@@H]3c4nc[nH]c4CCN3C(=O)c3ccnn3C(F)F)nc12` [Example 603, (S)-(1-(difluoromethyl)-1H-pyrazol-5-yl)(4-(4-methoxybenzo[d]oxazol-2-yl)-6,7-dihydro-1H-imidazo[4,5-c]pyridin-5(4H)-yl)methanone] was ≤ 500 nM; that for `COc1cccc2oc([C@H]3c4nc[nH]c4CCN3C(=O)c3ccnn3C(F)F)nc12` [Example 604, (R)-(1-(difluoromethyl)-1H-pyrazol-5-yl)(4-(4-methoxybenzo[d]oxazol-2-yl)-6,7-dihydro-1H-imidazo[4,5-c]pyridin-5(4H)-yl)methanone] was 1000 to 5000 nM.
Turning to `CC(C)(O)c1nc(C(F)F)c(C(=O)N2CCc3[nH]cnc3[C@H]2c2nc3cc(Cl)cc(F)c3o2)o1` [Example 605, (S)-(4-(5-chloro-7-fluorobenzo[d]oxazol-2-yl)-6,7-dihydro-1H-imidazo[4,5-c]pyridin-5(4H)-yl)(4-(difluoromethyl)-2-(2-hydroxypropan-2-yl)oxazol-5-yl)methanone], the AC50 was ≤ 500 nM.
